Measurements from US8614327B2 (Vertex Pharmaceuticals Incorporated, priority 2004, dated 2013).

Target: T1, ΔF508-CFTR (Homo sapiens, UniProt P13569, DEL508-508)
T1 construct: expressed in transfected cells
Assay: Membrane potential optical (FRET/VIPR) assay, identification of potentiator compounds
Assay type: cell-based
Details: Table 3, assay not given; for % Activity: relative efficacy
Method in brief: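 NIH3T3 mouse fibroblasts stably expressing ΔF508-CFTR, temperature-corrected 24 h at 27° C., read on VIPR by FRET between CC2-DMPE and DiSBAC2(3). Potentiators identified in a double-addition format, first adding chloride-free (gluconate) medium with or without compound.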

T1 sequence (P13569 with tags, fused parts or gaps DEL508-508): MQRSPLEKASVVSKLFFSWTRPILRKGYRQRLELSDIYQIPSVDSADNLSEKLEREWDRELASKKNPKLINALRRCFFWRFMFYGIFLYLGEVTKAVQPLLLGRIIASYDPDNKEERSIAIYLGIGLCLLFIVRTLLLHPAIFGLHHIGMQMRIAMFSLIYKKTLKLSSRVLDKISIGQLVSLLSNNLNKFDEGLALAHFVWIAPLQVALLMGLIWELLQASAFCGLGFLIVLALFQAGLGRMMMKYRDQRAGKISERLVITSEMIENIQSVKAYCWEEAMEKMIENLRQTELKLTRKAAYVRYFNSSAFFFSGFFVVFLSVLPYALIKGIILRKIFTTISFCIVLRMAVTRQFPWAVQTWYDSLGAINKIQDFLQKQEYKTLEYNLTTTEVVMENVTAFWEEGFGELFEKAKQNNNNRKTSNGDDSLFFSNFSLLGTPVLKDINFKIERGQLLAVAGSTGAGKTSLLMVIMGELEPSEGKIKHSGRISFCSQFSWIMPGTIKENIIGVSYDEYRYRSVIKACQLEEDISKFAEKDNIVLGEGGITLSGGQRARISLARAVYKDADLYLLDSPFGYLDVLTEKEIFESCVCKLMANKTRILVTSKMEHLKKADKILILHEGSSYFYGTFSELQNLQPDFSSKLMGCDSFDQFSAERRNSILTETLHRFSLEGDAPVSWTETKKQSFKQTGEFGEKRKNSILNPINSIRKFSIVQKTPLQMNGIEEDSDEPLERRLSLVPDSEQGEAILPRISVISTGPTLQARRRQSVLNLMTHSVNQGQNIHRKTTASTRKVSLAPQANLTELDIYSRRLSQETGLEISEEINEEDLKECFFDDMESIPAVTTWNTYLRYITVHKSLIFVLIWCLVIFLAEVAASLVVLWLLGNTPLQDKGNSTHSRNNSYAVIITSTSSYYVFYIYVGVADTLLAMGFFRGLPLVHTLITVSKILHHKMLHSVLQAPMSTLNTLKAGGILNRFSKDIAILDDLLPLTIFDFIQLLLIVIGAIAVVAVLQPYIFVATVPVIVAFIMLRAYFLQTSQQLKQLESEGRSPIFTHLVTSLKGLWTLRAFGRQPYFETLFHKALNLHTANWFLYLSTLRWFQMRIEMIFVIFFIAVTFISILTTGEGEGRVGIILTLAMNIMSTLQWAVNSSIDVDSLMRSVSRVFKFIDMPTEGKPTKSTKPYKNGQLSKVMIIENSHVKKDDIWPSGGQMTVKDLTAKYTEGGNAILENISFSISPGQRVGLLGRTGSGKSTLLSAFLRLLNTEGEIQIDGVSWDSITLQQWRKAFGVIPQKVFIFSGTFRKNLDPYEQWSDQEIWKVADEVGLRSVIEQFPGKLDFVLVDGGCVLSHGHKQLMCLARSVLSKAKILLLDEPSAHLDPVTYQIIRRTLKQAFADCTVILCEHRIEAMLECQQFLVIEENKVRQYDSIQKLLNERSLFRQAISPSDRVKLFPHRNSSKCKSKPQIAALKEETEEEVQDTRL

SMILES | % Activity | EC50
O=C(Nc1ccccc1-c1cc(F)cc(F)c1)c1c[nH]c2ccccc2c1=O [Compound 138, N-[2-(3,5-difluorophenyl)phenyl]-4-oxo-1H-quinoline-3-carboxamide] | ++ (between 25% to 100%) | –
O=C(Nc1ccccc1-c1ccc(Cl)cc1Cl)c1c[nH]c2ccccc2c1=O [Compound 139, N-[2-(2,4-dichlorophenyl)phenyl]-4-oxo-1H-quinoline-3-carboxamide] | ++ (between 25% to 100%) | –
O=C(Nc1ccc(C2CCCCC2)cc1)c1c[nH]c2ccccc2c1=O [Compound 140, N-(4-cyclohexylphenyl)-4-oxo-1H-quinoline-3-carboxamide] | ++ (between 25% to 100%) | –
CCOC(=O)Nc1cc(NC(=O)c2c[nH]c3ccccc3c2=O)ccc1C [Compound 141, [2-methyl-5-[(4-oxo-1H-quinolin-3-yl)carbonylamino]phenyl]aminoformic acid ethyl ester] | ++ (between 25% to 100%) | 10 to 25 µM
CCC(C)c1ccccc1NC(=O)c1c[nH]c2ccccc2c1=O (stereo not drawn) [Compound 142, 4-oxo-N-(2-sec-butylphenyl)-1H-quinoline-3-carboxamide] | ++ (between 25% to 100%) | < 10 µM
CC(C)(C)c1cc(F)c(NC(=O)c2c[nH]c3ccccc3c2=O)cc1O [Compound 143, N-(2-fluoro-5-hydroxy-4-tert-butyl-phenyl)-4-oxo-1H-quinoline-3-carboxamide] | ++ (between 25% to 100%) | < 10 µM
O=C(Nc1cccc(O)c1)c1c[nH]c2ccccc2c1=O [Compound 144, N-(3-hydroxyphenyl)-4-oxo-1H-quinoline-3-carboxamide] | ++ (between 25% to 100%) | < 10 µM
CCOC(=O)c1cc(NC(=O)c2c[nH]c3ccccc3c2=O)cc2[nH]ccc12 [Compound 145, 6-[(4-oxo-1H-quinolin-3-yl)carbonylamino]-1H-indole-4-carboxylic acid ethyl ester] | ++ (between 25% to 100%) | –
O=C(Nc1cccn2ncnc12)c1c[nH]c2ccccc2c1=O [Compound 146, 4-oxo-N-(1,7,9-triazabicyclo[4.3.0]nona-2,4,6,8-tetraen-5-yl)-1H-quinoline-3-carboxamide] | + (<25%) | 25 to 60 µM
O=C(Nc1cccnc1Oc1ccc(F)cc1)c1c[nH]c2ccccc2c1=O [Compound 147, N-[2-(4-fluorophenoxy)-3-pyridyl]-4-oxo-1H-quinoline-3-carboxamide] | ++ (between 25% to 100%) | < 10 µM
O=C(Nc1cc2[nH]ccc2cc1C(=O)N1CCCCC1)c1c[nH]c2ccccc2c1=O [Compound 148, 4-oxo-N-[5-(1-piperidylcarbonyl)-1H-indol-6-yl]-1H-quinoline-3-carboxamide] | ++ (between 25% to 100%) | < 10 µM
CCc1ccc(NC(=O)c2c[nH]c3ccccc3c2=O)cc1NC(C)=O [Compound 149, N-(3-acetylamino-4-ethyl-phenyl)-4-oxo-1H-quinoline-3-carboxamide] | ++ (between 25% to 100%) | 10 to 25 µM
O=C(Nc1ccc(C(O)(C(F)(F)F)C(F)(F)F)cc1)c1c[nH]c2ccccc2c1=O [Compound 150, 4-oxo-N-[4-[2,2,2-trifluoro-1-hydroxy-1-(trifluoromethyl)ethyl]phenyl]-1H-quinoline-3-carboxamide] | ++ (between 25% to 100%) | < 10 µM
Cc1csc(-c2ccccc2NC(=O)c2c[nH]c3ccccc3c2=O)c1 [Compound 151, N-[2-(4-methyl-2-thienyl)phenyl]-4-oxo-1H-quinoline-3-carboxamide] | ++ (between 25% to 100%) | < 10 µM
O=C(Nc1ccc2[nH]c(=O)oc2c1)c1c[nH]c2ccccc2c1=O [Compound 152, 4-oxo-N-(2-oxo-3H-benzooxazol-6-yl)-1H-quinoline-3-carboxamide] | + (<25%) | 25 to 60 µM
CCC(CC)(c1cc(F)c(NC(=O)c2cnc3ccccc3c2O)cc1O)C(C)(C)C [Compound 153, N-[4-(1,1-diethyl-2,2-dimethyl-propyl)-2-fluoro-5-hydroxy-phenyl]-4-hydroxy-quinoline-3-carboxamide] | ++ (between 25% to 100%) | < 10 µM
O=C(Nc1cc(C(F)(F)F)cc(C(F)(F)F)c1)c1c[nH]c2ccccc2c1=O [Compound 154, N-[3,5-bis(trifluoromethyl)phenyl]-4-oxo-1H-quinoline-3-carboxamide] | + (<25%) | 25 to 60 µM
O=C(Nc1ccccn1)c1c[nH]c2ccccc2c1=O [Compound 155, 4-oxo-N-(2-pyridyl)-1H-quinoline-3-carboxamide] | + (<25%) | 25 to 60 µM
O=C(Nc1ccccc1-c1ccccc1OC(F)(F)F)c1c[nH]c2ccccc2c1=O [Compound 156, 4-oxo-N-[2-[2-(trifluoromethoxy)phenyl]phenyl]-1H-quinoline-3-carboxamide] | ++ (between 25% to 100%) | < 10 µM

SMILES | % Activity | EC50
CCc1ccc(NC)cc1NC(=O)c1c[nH]c2ccccc2c1=O [Compound 157, N-(2-ethyl-5-methylamino-phenyl)-4-oxo-1H-quinoline-3-carboxamide] | ++ (between 25% to 100%) | < 10 µM
O=C(Nc1cc2[nH]ccc2cc1-c1ccccc1)c1c[nH]c2ccccc2c1=O [Compound 158, 4-Oxo-N-(5-phenyl-1H-indol-6-yl)-1H-quinoline-3-carboxamide] | ++ (between 25% to 100%) | < 10 µM
COC(=O)NC1CCCc2ccc(NC(=O)c3c[nH]c4ccccc4c3=O)cc21 (stereo not drawn) [Compound 159, [7-[(4-Oxo-1H-quinolin-3-yl)carbonylamino]tetralin-1-yl]aminoformic acid methyl ester] | ++ (between 25% to 100%) | 10 to 25 µM
CCCc1ccc(NC(=O)c2c[nH]c3ccccc3c2=O)cc1N [Compound 160, N-(3-amino-4-propyl-phenyl)-4-oxo-1H-quinoline-3-carboxamide] | ++ (between 25% to 100%) | < 10 µM
CCOCCOc1cc(NC(=O)c2c[nH]c3ccccc3c2=O)ccc1C(C)(C)C [Compound 161, N-[3-(2-ethoxyethoxy)-4-tert-butyl-phenyl]-4-oxo-1H-quinoline-3-carboxamide] | ++ (between 25% to 100%) | < 10 µM
COc1ccc(NC(=O)c2c[nH]c3ccccc3c2=O)cn1 [Compound 162, N-(6-methoxy-3-pyridyl)-4-oxo-1H-quinoline-3-carboxamide] | + (<25%) | 25 to 60 µM
CCOc1ccccc1-c1ccc(CN)cc1NC(=O)c1c[nH]c2ccccc2c1=O [Compound 163, 4-Oxo-1,4-dihydro-quinoline-3-carboxylic acid (4-aminomethyl-2′-ethoxy-biphenyl-2-yl)-amide] | ++ (between 25% to 100%) | 10 to 25 µM
O=C(Nc1cccc(C(F)(F)F)c1)c1c[nH]c2ccccc2c1=O [Compound 164, 4-oxo-N-[3-(trifluoromethyl)phenyl]-1H-quinoline-3-carboxamide] | ++ (between 25% to 100%) | < 10 µM
NS(=O)(=O)c1ccc(NC(=O)c2c[nH]c3ccccc3c2=O)cc1 [Compound 165, 4-oxo-N-(4-sulfamoylphenyl)-1H-quinoline-3-carboxamide] | + (<25%) | 25 to 60 µM
COC(=O)c1ccc(-c2ccccc2NC(=O)c2c[nH]c3ccccc3c2=O)cc1 [Compound 166, 4-[2-[(4-oxo-1H-quinolin-3-yl)carbonylamino]phenyl]benzoic acid methyl ester] | ++ (between 25% to 100%) | < 10 µM
Cc1ccc(NC(=O)c2c[nH]c3ccccc3c2=O)cc1N [Compound 167, N-(3-amino-4-methyl-phenyl)-4-oxo-1H-quinoline-3-carboxamide] | ++ (between 25% to 100%) | 10 to 25 µM
O=C(Nc1cccnc1)c1c[nH]c2ccccc2c1=O [Compound 168, 4-oxo-N-(3-pyridyl)-1H-quinoline-3-carboxamide] | + (<25%) | 25 to 60 µM
Cn1ccc2ccc(NC(=O)c3c[nH]c4ccccc4c3=O)cc21 [Compound 169, N-(1-methyl-1H-indol-6-yl)-4-oxo-1H-quinoline-3-carboxamide] | ++ (between 25% to 100%) | 10 to 25 µM
O=C(Nc1ccc(Cl)cn1)c1c[nH]c2ccccc2c1=O [Compound 170, N-(5-chloro-2-pyridyl)-4-oxo-1H-quinoline-3-carboxamide] | + (<25%) | 25 to 60 µM
O=C(Nc1ccccc1-c1cccc(Cl)c1Cl)c1c[nH]c2ccccc2c1=O [Compound 171, N-[2-(2,3-dichlorophenyl)phenyl]-4-oxo-1H-quinoline-3-carboxamide] | ++ (between 25% to 100%) | < 10 µM
O=C(Nc1ccccc1-c1cc2ccccc2s1)c1c[nH]c2ccccc2c1=O [Compound 172, N-(2-(benzo[b]thiophen-2-yl)phenyl)-1,4-dihydro-4-oxoquinoline-3-carboxamide] | ++ (between 25% to 100%) | < 10 µM
Cc1cccc(NC(=O)c2c[nH]c3ccccc3c2=O)n1 [Compound 173, N-(6-methyl-2-pyridyl)-4-oxo-1H-quinoline-3-carboxamide] | + (<25%) | 25 to 60 µM
CC(=O)c1ccc(-c2ccccc2NC(=O)c2c[nH]c3ccccc3c2=O)s1 [Compound 174, N-[2-(5-acetyl-2-thienyl)phenyl]-4-oxo-1H-quinoline-3-carboxamide] | ++ (between 25% to 100%) | < 10 µM
CC(=O)N1CC2(CC2)c2ccc(NC(=O)c3c[nH]c4ccccc4c3=O)cc21 [Compound 175, 4-Oxo-1,4-dihydro-quinoline-3-carboxylic acid N-(1′-Acetyl-1′,2′-dihydrospiro[cyclopropane-1,3′-3H-indol]-6′-yl)-amide] | ++ (between 25% to 100%) | 10 to 25 µM
